Reference: ChEMBL document CHEMBL1201862, “PubChem BioAssay data set” (2004)
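Interpolation was linear, between the two tested concentrations surrounding the appropriate level; five concentrations were tested over 48 hours in 96-well plates. At the GI50, growth is halved.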 The source made the active and inactive calls. No stated cut-off is given here; in the data, active = GI50 up to about 1.1 µM and inactive = higher.

How the values were obtained:
Assay in all cases: DTP human tumour cell line panel, 48 h
CCRF-CEM = tested on: CCRF-CEM
A549 = tested on: A549
Hs-578T = tested on: Hs-578T
HCC 2998 = tested on: HCC 2998
SK-MEL-5 = tested on: SK-MEL-5
RPMI-8226 = tested on: RPMI-8226
UO-31 = tested on: UO-31
SK-MEL-28 = tested on: SK-MEL-28
SW-620 = tested on: SW-620
HOP-92 = tested on: HOP-92
786-0 = tested on: 786-0
SF-539 = tested on: SF-539
SK-MEL-2 = tested on: SK-MEL-2
HCT-116 = tested on: HCT-116
SF-268 = tested on: SF-268
CAKI-1 = tested on: CAKI-1
OVCAR-4 = tested on: OVCAR-4
COLO 205 = tested on: COLO 205
ACHN = tested on: ACHN
SK-OV-3 = tested on: SK-OV-3

| SMILES | GI50 (CCRF-CEM) | GI50 (A549) | GI50 (Hs-578T) | GI50 (HCC 2998) | GI50 (SK-MEL-5) | GI50 (RPMI-8226) | GI50 (UO-31) | GI50 (SK-MEL-28) | GI50 (SW-620) | GI50 (HOP-92) | GI50 (786-0) | GI50 (SF-539) | GI50 (SK-MEL-2) | GI50 (HCT-116) | GI50 (SF-268) | GI50 (CAKI-1) | GI50 (OVCAR-4) | GI50 (COLO 205) | GI50 (ACHN) | GI50 (SK-OV-3) |
| --- | --- | --- | --- | --- | --- | --- | --- | --- | --- | --- | --- | --- | --- | --- | --- | --- | --- | --- | --- | --- |
| CN(CCNC(=O)c1nn(-c2ccc(Cl)cc2Cl)c2c1Cc1ccccc1-2)CCNC(=O)c1nn(-c2ccc(Cl)cc2Cl)c2c1Cc1ccccc1-2 | 2.27 µM (inactive) | 3.29 µM (inactive) | 1.53 µM (inactive) | 1.75 µM (inactive) | 1.74 µM (inactive) | 1.62 µM (inactive) | 2.94 µM (inactive) | 1.97 µM (inactive) | 1.86 µM (inactive) | 1.99 µM (inactive) | 2.16 µM (inactive) | 1.85 µM (inactive) | 2.05 µM (inactive) | 2.1 µM (inactive) | 12.1 µM (inactive) | 4.94 µM (inactive) | 2.1 µM (inactive) | 1.81 µM (inactive) | 4.53 µM (inactive) | 15.7 µM (inactive) |
| CC(C)=CCc1ccc2[nH]c3c(c2c1)C(=O)C(=O)C(C)=C3C(O)C(C)O (stereo not given) | 1.55 µM (inactive) | 21.8 µM (inactive) | 15.1 µM (inactive) | 6.38 µM (inactive) | 2.45 µM (inactive) | 1.82 µM (inactive) | 1.55 µM (inactive) | 7.19 µM (inactive) | 2.09 µM (inactive) | 1.51 µM (inactive) | 1.87 µM (inactive) | 5.98 µM (inactive) | 8.2 µM (inactive) | 1.78 µM (inactive) | 12.9 µM (inactive) | 4.38 µM (inactive) | 3.72 µM (inactive) | 2.16 µM (inactive) | 4.27 µM (inactive) | 16.2 µM (inactive) |
| CCOC(=O)/C=C(/C(=O)OCC)n1ccc(=O)[nH]c1=O | 1.14 µM (inactive) | 18 µM (inactive) | 17.9 µM (inactive) | 16.5 µM (inactive) | 15.3 µM (inactive) | 2.67 µM (inactive) | 14 µM (inactive) | 6.56 µM (inactive) | 1.86 µM (inactive) | 2.07 µM (inactive) | 3.36 µM (inactive) | 18.9 µM (inactive) | 15.8 µM (inactive) | 2.48 µM (inactive) | 15.6 µM (inactive) | 0.938 µM (active) | 8.61 µM (inactive) | 1.65 µM (inactive) | 3.99 µM (inactive) | 18.7 µM (inactive) |
| Cn1c(-c2cccc(N)c2)[n+](C)c2ccccc21 | 53.1 µM (inactive) | 40.9 µM (inactive) | 64.6 µM (inactive) | > 100 µM (inactive) | 57.3 µM (inactive) | > 100 µM (inactive) | > 100 µM (inactive) | > 100 µM (inactive) | > 100 µM (inactive) | > 100 µM (inactive) | > 100 µM (inactive) | > 100 µM (inactive) | > 100 µM (inactive) | > 100 µM (inactive) | > 100 µM (inactive) | > 100 µM (inactive) | > 100 µM (inactive) | 38.7 µM (inactive) | > 100 µM (inactive) | > 100 µM (inactive) |
| COc1cc(/C=C/c2ccc(C)cc2)cc(OC)c1OC | 3.45 µM (inactive) | 4.27 µM (inactive) | 2.56 µM (inactive) | 4.82 µM (inactive) | 3.85 µM (inactive) | 3.8 µM (inactive) | 4.49 µM (inactive) | 5.77 µM (inactive) | 4.29 µM (inactive) | 9.33 µM (inactive) | 3.87 µM (inactive) | 2.42 µM (inactive) | 7.18 µM (inactive) | 3.3 µM (inactive) | 5.37 µM (inactive) | 5.9 µM (inactive) | 17.3 µM (inactive) | 3.16 µM (inactive) | 6.31 µM (inactive) | 6.84 µM (inactive) |
| COc1cc(OC)c2c(c1)OC(c1ccccc1)CC2=O (stereo not given) [DIMETHYLPINOCEMBRIN] | > 10 µM (inactive) | > 10 µM (inactive) | > 10 µM (inactive) | > 10 µM (inactive) | > 10 µM (inactive) | > 10 µM (inactive) | > 10 µM (inactive) | > 10 µM (inactive) | > 10 µM (inactive) | > 10 µM (inactive) | > 10 µM (inactive) | > 10 µM (inactive) | > 10 µM (inactive) | > 10 µM (inactive) | > 10 µM (inactive) | > 10 µM (inactive) | > 10 µM (inactive) | > 10 µM (inactive) | > 10 µM (inactive) | > 10 µM (inactive) |
| C/C(=N\NC(=N)N)C(CN(C)C)C(c1ccccc1)c1c(O)c2ccccc2oc1=O (stereo not given) | > 100 µM (inactive) | > 100 µM (inactive) | > 100 µM (inactive) | > 100 µM (inactive) | > 100 µM (inactive) | > 100 µM (inactive) | > 100 µM (inactive) | > 100 µM (inactive) | > 100 µM (inactive) | 4.91 µM (inactive) | > 100 µM (inactive) | > 100 µM (inactive) | > 100 µM (inactive) | > 100 µM (inactive) | > 100 µM (inactive) | > 100 µM (inactive) | > 100 µM (inactive) | > 100 µM (inactive) | > 100 µM (inactive) | > 100 µM (inactive) |
